From patent US20260199284A1, “SPECIFIC VASH COMPOUNDS (SVC) INHIBITORS FOR HEART DISEASES” (MT ACT, priority 2023, published 2026)

Assays:
[1] = test system: primary cardiomyocytes isolated from ZSF1-Lean or ZSF1 Obese rats; test: Nanoindentation transverse stiffness; format: cell-based, rat
Text: FIG. 17: Reduced transverse stiffness upon VASH inhibition or TTL overexpression in primary cardiomyocytes isolated from ZSF1-Lean or ZSF1 Obese rats. A) Stiffness (elastic modulus) plotted as a function of nanoindentation velocity in ZSF1-Lean and B) ZSF1-Obese myocytes. C) Quantification of Emin (elastic stiffness), Emax (stiffness at maximal velocity of indentation) and D) DeltaE (indicator of viscoelasticity) in ZSF1-Lean and Obese cardiomyocytes.
Mechanical properties at the microscopic scale were measured using nano-indentation (Piuma; Optics11, Amsterdam, The Netherlands) equipped with a dynamic mechanical analysis package (DMA). Freshly isolated cardiomyocytes were attached to glass-bottom dishes coated with MyoTak (IonOptix) in NT solution at 1 mM Ca2+. A spherical indentation probe with a radius of 4.5 μm and a stiffness of 0.1 N/m was used to indent the myocytes to a depth of 1-2 μm and the probe was then oscillated in a sinusoidal pattern at a frequency of 0.05, 0.1, 0.5, 1, 2, 5, 10, 20 and 50 Hz and an amplitude of 1 μm. The Piuma Data Viewer version 2.0 was used to convert DMA indentation depth and cantilever deflection into E′ and E″ and the magnitude of the elastic modulus was determined by E^2=E′^2+E″^2 A Poisson's ratio (n) of 0.5 was assumed and the average of E in each experimental condition was determined as a function of indentation speed. […]

ZSF1-Lean and Obese rats = test: Myocardial tubulin detyrosination after IV injection in ZSF1 rats (western blot, immunofluorescence); format: in vivo, rat; conditions: for detyrosinated tubulin in myocardial tissue (words): IV injections, 30 weeks old ZSF1 rats, western blot
Experimental: FIG. 23: immunofluorescence imaging to detect tubulin detyrosination on LV tissue and evaluate changes in the abundance of detyrosinated tubulin following SVC-02 treatment.
FIG. 24: Quantification of immunofluorescence imaging analysis performed on LV tissue to evaluate changes in microtubule density (SVC-02 as VASHi).
Formalin fixed paraffin embedded (FFPE) sections on glass slides were deparaffinized by sequential washes in xylenes, and decreasing concentrations of ethanol (100%, 95%, 75%, and 50%) followed by ddH2O. Slides were placed in 1× Reveal decloaking solution (Biocare Medical, Catalog #RV1000M) for antigen retrieval. Antigen retrieval was performed using a pressure cooker (Instant Pot Pro 10-in-1 pressure cooker, 8 Quart, Amazon.com) for 15 minutes at high pressure. After cooling, slides underwent a second round of antigen retrieval in 1× Antigen Unmasking Solution, Citric Acid Based (Vector Laboratories, Catalog #H-3300-250) in a pressure cooker for 15 minutes at high pressure. Next, the slides were washed in ddH2O, followed by PBS. The slides were permeabilized with PBS+0.25% Triton X-100, followed by incubation in fish serum blocking buffer (Thermo Scientific, Catalog #37527) containing 0.1% Tween 20 for 1 hour at RT.
Sections were co-stained with Mouse monoclonal (B-5-1-2) antibody to α-tubulin (Sigma-Aldrich, Catalog #T5168; 1:50) and Rabbit polyclonal detyrosinated α-tubulin antibody (ab48389 Lot #GR3425171; 1:50) in blocking buffer for 2 days at RT. Sections were washed in PBS containing 0.1% Tween 20 (PBST) and then incubated in goat anti-rabbit conjugated to Alexa Fluor 647 and goat anti-mouse conjugated to Alexa Fluor 568 secondary antibodies along with Alexa Fluor 488 conjugated WGA (Invitrogen Catalog #W11261; final concentration 25 μg/mL) in PBST for 2 days at RT. The sections were then stained with Hoechst 33342, Trihydrochloride, Trihydrate (Invitrogen Catalog #H3570, final concentration 10 μg/mL in PBS) and mounted in Prolong Diamond Antifade Mountant (Invitrogen Catalog #P36961).
Longitudinally oriented cardiomyocytes within the myocardium were identified. Four channel Z-stacks (4×500 nm slices) of myocardial regions were imaged using a 63× oil immersion objective (1.4 NA) on a Zeiss Airyscan 880 microscope with 18.3 nm×18.3 nm pixel size. The images were background subtracted and maximum intensity projections were generated in FIJI (NIH). Rectangular ROIs were blindly drawn within the cytosolic portion of individual cardiomyocytes, while excluding the nuclei and perinuclear regions, using the WGA and Hoechst channels. The α-tubulin and detyrosinated microtubule images were extracted from the ROIs. […] The microtubule density was calculated as the percent area coverage of the binary maps within each ROI. […]

Row | Structure (SMILES) | transverse viscoelastic stiffness [1] | detyrosinated tubulin in myocardial tissue (words) (ZSF1-Lean and Obese rats) | detyrosinated tubulin in myocardial tissue (words) (ZSF1-Lean and Obese rats; listed as SVC-02) | reduction of tubulin detyrosination in heart tissue (ZSF1-Lean and Obese rats; lean and obese animals, 8 hours following intravenous injection) | density of detyrosinated-microtubules in LV tissue (ZSF1-Lean and Obese rats; obese animals, immunofluorescence, vs vehicle)
1 | O=C(O)CCC[C@H](NC(=O)[C@H]1O[C@@H]1C(=O)C[C@@H](Cc1ccc(OCc2ccccc2)cc1)C(=O)O)C(=O)NCCc1ccccc1 [SVC_01] | viscoelastic stiffness is reduced |  |  |  | 
2 | CCOC(=O)[C@H](Cc1ccc(OCC)cc1)NC(=O)[C@H]1O[C@@H]1C(=O)N[C@@H](Cc1ccc(OCC)cc1)C(=O)OCC [SVC_02] |  | efficient reduction in detyrosinated tubulin | significantly reduced detyrosinated tubulin abundance | about 60% | significant reduction in the density of detyrosinated-microtubules
